Toxic doses and inconclusive results are not listed. Rule as the data show it: active = T/C of 150% or more; inactive = T/C below 125%.
Test system: L1210 leukemia ip in BDF1 mice, survival T/C
Assay: NCI In Vivo Anticancer Drug Screen. Data for tumor model L1210 Leukemia (intraperitoneal) in B6D2F1 (BDF1) mice
Conditions: endpoint: mean survival time, higher = longer survival
Procedure, shortened: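 Ratio derived from survival: compound-dosed mice over vehicle-dosed mice, all bearing a transplantable tumor.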

[1] = dose: 100.0 mg/kg/injection, schedule: Q04DX003 (ip), vehicle: saline with Tween-80
[2] = dose: 200.0 mg/kg/injection, schedule: Q04DX003 (ip), vehicle: saline with Tween-80

Measured: T/C

CCCCOC(=O)c1ccccc1C(=O)OC1CCCCC1
inactive: dose: 75.0 mg/kg/injection, schedule: Q01DX001 (ip), vehicle: Klucel (hydroxypropylcellulose) (HPC) 115 % of control | dose: 150.0 mg/kg/injection, schedule: Q01DX001 (ip), vehicle: Klucel (hydroxypropylcellulose) (HPC) 103 % of control | dose: 300.0 mg/kg/injection, schedule: Q01DX001 (ip), vehicle: Klucel (hydroxypropylcellulose) (HPC) 100 % of control

CC(=O)OCCN1CC1
inactive: dose: 3.12 mg/kg/injection, schedule: Q01DX009 (ip), vehicle: saline 116 % of control | dose: 6.25 mg/kg/injection, schedule: Q01DX009 (ip), vehicle: saline 122 % of control | dose: 12.5 mg/kg/injection, schedule: Q01DX009 (ip), vehicle: saline 118 % of control

COC(=O)CCC#CC#CCCC(=O)OC
inactive: dose: 100.0 mg/kg/injection, schedule: Q01DX009 (ip), vehicle: Klucel (hydroxypropylcellulose) (HPC) 97 % of control | dose: 100.0 mg/kg/injection, schedule: Q04DX003 (ip), vehicle: Klucel (hydroxypropylcellulose) (HPC) 90 % of control | dose: 200.0 mg/kg/injection, schedule: Q01DX009 (ip), vehicle: Klucel (hydroxypropylcellulose) (HPC) 102 % of control | dose: 200.0 mg/kg/injection, schedule: Q04DX003 (ip), vehicle: Klucel (hydroxypropylcellulose) (HPC) 95 % of control | dose: 400.0 mg/kg/injection, schedule: Q01DX009 (ip), vehicle: Klucel (hydroxypropylcellulose) (HPC) 108 % of control | dose: 400.0 mg/kg/injection, schedule: Q04DX003 (ip), vehicle: Klucel (hydroxypropylcellulose) (HPC) 90 % of control

BrCCOCCBr
inactive: dose: 25.0 mg/kg/injection, schedule: Q01DX009 (ip), vehicle: other 97 % of control | dose: 50.0 mg/kg/injection, schedule: Q01DX009 (ip), vehicle: other 92 % of control | dose: 100.0 mg/kg/injection, schedule: Q01DX009 (ip), vehicle: other 95 % of control

CCOCCC(O)CC (centres undefined)
inactive: dose: 100.0 mg/kg/injection, schedule: Q01DX009 (ip), vehicle: saline 98 % of control | dose: 100.0 mg/kg/injection, schedule: Q04DX003 (ip), vehicle: saline 90 % of control | dose: 200.0 mg/kg/injection, schedule: Q01DX009 (ip), vehicle: saline 98 % of control | dose: 200.0 mg/kg/injection, schedule: Q04DX003 (ip), vehicle: saline 88 % of control | dose: 400.0 mg/kg/injection, schedule: Q01DX009 (ip), vehicle: saline 98 % of control | dose: 400.0 mg/kg/injection, schedule: Q04DX003 (ip), vehicle: saline 89 % of control

NC(=O)NC(=O)Nc1ccccc1
inactive: dose: 100.0 mg/kg/injection, schedule: Q04DX002 (ip), vehicle: saline 96 % of control | dose: 200.0 mg/kg/injection, schedule: Q04DX002 (ip), vehicle: saline 96 % of control | dose: 400.0 mg/kg/injection, schedule: Q04DX002 (ip), vehicle: saline 111 % of control

C1=CC2(CCC13CS3)CS2 (centres undefined)
inactive: dose: 100.0 mg/kg/injection, schedule: Q04DX002 (ip), vehicle: saline with Tween-80 91 % of control | dose: 200.0 mg/kg/injection, schedule: Q04DX002 (ip), vehicle: saline with Tween-80 88 % of control | dose: 400.0 mg/kg/injection, schedule: Q04DX002 (ip), vehicle: saline with Tween-80 91 % of control

Cn1c(=N)ccn(C2OC(CO)C(O)C2O)c1=O (centres undefined) (tested in a mixture with another compound)
inactive: dose: 100.0 mg/kg/injection, schedule: Q01DX001 (ip), vehicle: saline 106 % of control | dose: 200.0 mg/kg/injection, schedule: Q01DX001 (ip), vehicle: saline 106 % of control | dose: 400.0 mg/kg/injection, schedule: Q01DX001 (ip), vehicle: saline 107 % of control

O=C(CCCl)Oc1c(Cl)c(Cl)c(Cl)c(Cl)c1Cl
inactive: dose: 50.0 mg/kg/injection, schedule: Q01DX001 (ip), vehicle: saline with Tween-80 98 % of control | dose: 50.0 mg/kg/injection, schedule: Q01DX009 (ip), vehicle: saline with Tween-80 111 % of control | dose: 50.0 mg/kg/injection, schedule: Q04DX003 (ip), vehicle: saline with Tween-80 95 % of control | dose: 100.0 mg/kg/injection, schedule: Q01DX001 (ip), vehicle: saline with Tween-80 96 % of control | dose: 100.0 mg/kg/injection, schedule: Q01DX009 (ip), vehicle: saline with Tween-80 103 % of control | [1] 97 % of control | dose: 200.0 mg/kg/injection, schedule: Q01DX001 (ip), vehicle: saline with Tween-80 100 % of control | dose: 200.0 mg/kg/injection, schedule: Q01DX009 (ip), vehicle: saline with Tween-80 100 % of control | [2] 93 % of control

OC1COC(OCc2ccccc2)C(O)C1O (centres undefined)
inactive: dose: 100.0 mg/kg/injection, schedule: Q01DX001 (ip), vehicle: Klucel (hydroxypropylcellulose) (HPC) 101 % of control | [1] 101 % of control | dose: 200.0 mg/kg/injection, schedule: Q01DX001 (ip), vehicle: Klucel (hydroxypropylcellulose) (HPC) 96 % of control | [2] 100 % of control | dose: 400.0 mg/kg/injection, schedule: Q01DX001 (ip), vehicle: Klucel (hydroxypropylcellulose) (HPC) 101 % of control

Source: PubChem BioAssay AID248 (DTP/NCI, 2004)
